For orientation: melting point means the temperature of the solid-liquid transition. The molecule `O=[N+]([O-])c1ccc(-c2nnc3ccc(N=CCN4CCCCC4)nn23)o1` showed a melting point of 207 to 209 °C.
For `CN(C)c1ccc(C(=O)C(C)(C)N(C)C)cc1`, the melting point is 89 to 91 °C.
Turning to `CC(C)C=NNC1=NS(=O)(=O)c2ccccc21`, the melting point was found to be 225 °C.
The same measure for `CCCc1nc2c(N)ncc(Br)c2n1CCOCCN`: 114 to 117 °C.
The figure for `O=C(O)CN1C(=O)C(c2ccccc2)c2ccccc21` (stereo not drawn) is 180 to 181 °C.
Consider `Cc1ccc2c(c1)OC(CCO)C(=O)N2` (stereo not drawn), for which the melting point lay within 143 to 144 °C.
In turn, `CC(=O)N1CCc2ccc(Cl)c(S)c2C1` had a melting point of 92 to 112 °C.
Take `Cc1cc(-c2ccc(C(F)(F)F)nc2)nc(-c2cccc(-c3ccc(S(N)(=O)=O)s3)c2)n1`: the melting point came out at 238 °C.
On to `CC(C)C(NC(=O)N(C)Cc1ccccn1)C(=O)NC(Cc1ccccc1)C(O)C(Cc1ccccc1)NC(=O)C(NC(=O)N(C)Cc1ccccn1)C(C)C` (stereo not drawn), for which the melting point lay within 70 to 72 °C.
`Nc1ccc(-c2cnc(COCc3cc4ccccc4o3)o2)cc1` gave a melting point of 96 to 98 °C.
The same measure for `Cc1ccc2c(c1)[C@H]1Cc3ccccc3[C@H]1N2` (relative stereo): 110 °C.
`COc1cc(Nc2c(C#N)cnc3cc(-c4ccc(CN(C)C)cc4)sc23)c(Cl)cc1Cl` returned a melting point of 224 to 225 °C.
The same measure for `CC1CC2C3CCC4=CC(=O)C=CC4(C)C3(F)C(O)CC2(C)C1(O)C(=O)COC(=O)c1cccnc1` (stereo not drawn): 262 to 265 °C.
The same measure for `COc1ccc2cc(N)ccc2c1`: 133 to 136 °C; for `Cc1cccc(C)c1NC(=O)CN1CCN(CC(O)C2COc3ccccc3O2)CC1` (stereo not drawn): 175 to 176 °C; for `CC1=C(C(=O)OCOC(=O)C(C)(C)C)C(c2cccc([N+](=O)[O-])c2)C(C(=O)OCOC(=O)C(C)(C)C)=C(C)N1`: 124 to 125 °C.
The figure for `O=C(OC1=CC(O)=CC(C=Cc2ccc(O)cc2)(C(=O)c2cc(O)c(O)c(O)c2)C1)c1cc(O)c(O)c(O)c1` (stereo not drawn) is 210 to 212 °C; for `O=C(O)c1c(Cl)ccc([N+](=O)[O-])c1Cl` it is 133 to 135 °C.
Turning to `Nc1ccccc1C(=O)Nc1ccc(Br)cc1`, the melting point lay within 139 to 144 °C.
The figure for `O=C(O)CSCCSc1cc(-c2ccccc2)c(O)c(-c2ccccc2)c1` is 125 °C; for `Cn1c(=O)n(-c2cc(Cl)ccc2O)c2ccc(F)cc21` it is 247 to 250 °C.
Molecule `CC1=C(C#N)C(c2cncc3ncc(-c4ccccc4)cc23)C(C(=O)OC(C)C)=C(C)N1` (stereo not drawn) had a melting point of 192 °C.
`CC(C)(C)OC(=O)Nc1ccc(N2CCNCC2)cc1`: the melting point was in the range of 155 to 157 °C.
Turning to `CCOC(=O)CN1CCN(S(=O)(=O)c2ccc(N3CCC(NC[C@H](O)c4ccc(O)c(NS(C)(=O)=O)c4)CC3)cc2)CC1`, the melting point was 91 to 92 °C.
With `CC(C)(C)CC(C)(C)NC(=O)CCON(Cc1ccccc1)Cc1ccccc1`, the melting point is 96 to 98 °C.
The same measure for `O=C(NC1CC1)c1cc([N+](=O)[O-])[nH]n1`: 206 °C; for `CN1c2ccc(S(=O)(=O)c3ccccc3)cc2C2C[C@H](N)CCC21` (stereo partly drawn): 217 to 219 °C.
Regarding `CC(=O)OCC(=O)c1ccc(Cl)c(Cl)c1`, the melting point lay within 68 to 70 °C.
The same measure for `O=C(O)CCCCCNC(=O)OCc1ccccc1`: 54 to 55.5 °C.
The figure for `CCOC(=O)Cc1cc(C)c(C(=O)c2ccc(Cl)cc2Cl)n1C` is 90 to 92 °C; for `CN(C)c1ccc(/C=C/c2ccc(F)c(F)c2)cc1` it is 159 to 160 °C; for `Cn1c(=O)c2c(C(=O)O)nc(O)n2c2ccccc21` it is over 300 °C.
The same measure for `CC(C)CCc1c(-c2ccc(S(C)(=O)=O)cc2)cnn(-c2cccc(Cl)c2)c1=O`: 60 to 65 °C; for `CCC(=O)C1=C(O)CC(c2c(C)c([N+](=O)[O-])c(C)c([N+](=O)[O-])c2C)CC1=O` (stereo not drawn): 249 °C; for `O=[N+]([O-])c1oc2c(CC(CO)CO)cccc2c1-c1ccccc1`: 166 to 168 °C.
In the case of `O=C(O)CCCC#CCNS(=O)(=O)c1ccc(Cl)cc1`, the melting point was in the range of 91 to 93 °C.
The same measure for `O=C(O)c1ccc(C(=O)/C=C/c2ccc(-c3cncnc3)cc2)cc1`: over 260 °C.
`CCOc1cc(-c2cc(C(F)(F)F)nc(-c3ccnc(-c4ccc(S(N)(=O)=O)s4)c3)n2)ccc1C(F)(F)F`: the melting point was determined as 238 °C.
In the case of `CCCCCCCCCCCCCCCCCCOc1cc(OCC(=O)O)cc(C(=O)N(CC(=O)O)CC(=O)O)c1`, the melting point was in the range of 134 to 136 °C.
The figure for `O=C(CCc1ccccc1)CS(=O)(=O)C(c1ccc(Cl)cc1)c1ccc(Cl)cc1` is 106 to 107 °C; for `COc1ccc(C#CCCCCCCC#CCO)cc1OC` it is 39 to 41 °C; for `COc1ccc(C(=O)Nc2ccccc2CC2CCCCN2)cc1` (stereo not drawn) it is 108 to 109 °C.
Take `CC(C)C1(c2ccccc2)OC(C(=O)OCc2cccnc2)=CC1=O` (stereo not drawn): the melting point was 109 to 110 °C.
The same measure for `O=C1CCC(=O)N1[C@H]1CC[C@H](Nc2nccc(-n3nnc4ccccc43)n2)CC1`: 205 to 210 °C; for `Cc1cc(Cl)ccc1NC(=O)n1nc(Oc2cccc(C(F)(F)F)c2)cc1C`: 95 to 96 °C.
Take `COc1ccc(C2CNC(=O)N2C(C)c2ccccc2)cc1OC1CC2CCC1C2` (stereo not drawn): the melting point lay within 151 to 154 °C.
In the case of `CC(C)(S)[C@H]1C[C@H](C(=O)O)CS1` (relative stereo), the melting point was 97 to 98.3 °C.
The figure for `CC(C)c1c(Br)ccc(N)c1C#N` is 82 to 85 °C; for `C[C@H]1C=CC(Sc2ccccc2)=CC[C@H]1O` it is 54 to 56 °C; for `CCOC(=O)C(Cc1cccc2ccccc12)(Cc1cccc2ccccc12)C(=O)OCC` it is 79 to 81 °C.
The same measure for `Cn1cc(-c2ccccc2)c(=O)c(-c2ccc3ccccc3c2)c1`: 101 to 105 °C.
As for `Cc1cc(=O)[nH]c2ccc(OCCCN3CCN(Cc4ccc(C(C)(C)C)cc4)CC3)cc12`, the melting point is 171 to 172 °C.
Molecule `O=C1CCCCc2ccccc21` gave a melting point of 79 to 84 °C.
The same measure for `Nc1ncnc2c1ncn2OCCOCP(=O)(O)O`: 241 to 244 °C.
The molecule `CC(C)(C)OC(=O)[C@H](CC1CC1)N1C(=O)NC(C(F)(F)F)(C(F)(F)F)C1=O` gave a melting point of 76 to 77 °C.
As for `COc1ccc2cc(-n3cnnc3)cc(C)c2n1`, the melting point lay within 157 to 159 °C.
The figure for `COc1ccc(N2CCOCC2)c2sc(NC(=O)N(C)C3CCC(F)(F)CC3)nc12` is 189 to 192 °C.
Molecule `COc1cc2c(cc1OC)CN(c1cc(Cl)ncn1)CC2` registered a melting point of 88 to 89 °C.
The figure for `O=C(C1CCN(c2ccncn2)CC1)N1CCN(S(=O)(=O)c2ccc3cc(Cl)ccc3c2)CC1` is 218 to 219 °C; for `C=CCNc1ccc(C(=O)O)cc1[N+](=O)[O-]` it is 195 to 200 °C; for `CC1(C)Oc2ccc(C#N)cc2[C@H](N(Cc2ncc[nH]2)c2ccc(Cl)cc2)[C@H]1O` it is 266 to 267 °C.
The same measure for `C#CC(C)(C)OC(=O)Nc1ccc(-c2ncn(-c3ccc(OC(F)(F)F)cc3)n2)cc1`: 164 to 165 °C; for `C=CCN1CCC(=O)N(c2c(C)cccc2C)C1=S`: 88 to 91 °C.
In the case of `Cc1cn(N)c2ccccc12`, the melting point was in the range of 60 to 63 °C.
Turning to `Cc1nc(N2CCc3ccccc3CC2)c(C#N)c(=O)n1NC(=O)OC(C)(C)C`, the melting point is 150 to 152 °C.
The molecule `C=C1c2cc(C(=O)O)ccc2CCC1n1ccnc1` (stereo not drawn) had a melting point of 227 to 229 °C.
The same measure for `CCOC(=O)C(=O)Cc1ccc(C#N)cc1[N+](=O)[O-]`: 118 °C; for `CC(CNc1cccc(-c2ccnc3c(C(=O)c4cccs4)cnn23)c1)c1ccccc1` (stereo not drawn): 108 to 110 °C.
Regarding `O=C1c2ccccc2C(=O)N1CCCCN1CCN(c2ncccn2)CC1`, the melting point worked out at 138 °C.
The figure for `O=C(c1cccc(C(F)(F)F)c1)c1ncccc1C(O)=NNc1ccc(C(F)(F)F)cc1` is 127 to 129 °C.
Consider `COc1ccc(OC)c(C=CC(=O)N(C)O)c1`, for which the melting point lay within 111 to 112 °C.
The same measure for `COC(=O)c1cccc(C)c1OC(=S)N(C)C`: 94 to 96 °C; for `O=Cc1cccc(COc2cccc(-c3ccsc3)c2)c1`: 62 to 63 °C; for `Cc1cc(S(=O)(=O)N2c3ccccc3CC2C(=O)NCCOc2ccc(CC(=O)O)cc2)ccc1-c1cccc(C(F)(F)F)c1` (stereo not drawn): 92 °C.
On to `CCc1nc(-c2ccnnc2)no1`, for which the melting point was in the range of 73 to 74 °C.
In turn, `COc1ccc2cc(-c3cncn3C)cc(C)c2n1` returned a melting point of 160 to 162 °C.
The same measure for `O=C1c2ccccc2C(=O)N1CCSCCc1ccco1`: 53 to 55 °C; for `N#Cc1ccc(NC(=S)Nc2ncccc2OCc2ccccc2)cc1`: 163 to 165 °C; for `CCNC(=S)Nc1nc2ccc(OC(F)(F)F)cc2s1`: 199 to 200 °C.
On to `COc1ccc(OC)c2c1CC(C(=O)O)CC2=O` (stereo not drawn), for which the melting point is 199 to 201 °C.
The same measure for `CC(=O)OCCOCCN1CCC(CNC(=O)[C@@H]2CCCN2S(=O)(=O)c2ccc(Cl)c(COc3cccc4c(-n5ccnc5)cc(C)nc34)c2Cl)CC1`: 90 °C.
The figure for `COc1cc2cc(CO)c(CO)c(-c3ccnc(-n4c(=O)cc(C(=O)N(CCO)CCO)c5ccccc54)c3)c2cc1OC` is 65 to 68 °C; for `CN(C)C1CCc2[nH]c3cccc(OCc4ccccc4)c3c2C1` (stereo not drawn) it is 207 to 209 °C; for `CCOC(=O)/C=C/c1ccc(OCC(C)=O)cc1Oc1ncc(C(F)(F)F)cc1Cl` it is 167 to 168 °C.
`Nc1cnc2ccc(-c3ccccc3)cc2c1Nc1ccccc1Br` registered a melting point of 174 to 177 °C.
The same measure for `COc1ccc(S(=O)(=O)N(Cc2cccnc2)c2c(C)cc(-c3cccs3)cc2C(=O)O)cc1`: 191 °C.
`CCOC(=O)c1c(C)nc(Cl)c([N+](=O)[O-])c1N` registered a melting point of 73 to 75 °C.
The same measure for `COc1cc(OC)nc(-n2c(S(C)(=O)=O)nc3ccccc32)n1`: 114 to 117 °C.

For the origin of these results see a melting point compilation (Tetko et al.; mined from patent text by program, amines drawn as free bases though some values may be those of a salt).
